Experimental findings from US20230357269A1 (LES LABORATOIRES SERVIER, priority 2020, published 2023) are described below.

The target in the assay is human recombinant LRRK2 protein (Homo sapiens (Human), UniProt Q5S007). As to the kind of experiment: LRRK2 Kinase Activity Assay (ADP-Glo). It is filed as biochemical. To be noted: LRRK2 wt; LRRKtide peptide and ATP substrates; 1h-incubation at 37° C. The essentials: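 Recombinant human LRRK2 acted on LRRKtide peptide and ATP for 1 h at 37 °C. ADP formed was detected by ADP-Glo luminescence (ATP depletion, then ADP-to-ATP conversion and luciferase). IC50s came from curve fits over 10 concentrations (N=2).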
Chain of human recombinant LRRK2 protein (Q5S007 whole entry): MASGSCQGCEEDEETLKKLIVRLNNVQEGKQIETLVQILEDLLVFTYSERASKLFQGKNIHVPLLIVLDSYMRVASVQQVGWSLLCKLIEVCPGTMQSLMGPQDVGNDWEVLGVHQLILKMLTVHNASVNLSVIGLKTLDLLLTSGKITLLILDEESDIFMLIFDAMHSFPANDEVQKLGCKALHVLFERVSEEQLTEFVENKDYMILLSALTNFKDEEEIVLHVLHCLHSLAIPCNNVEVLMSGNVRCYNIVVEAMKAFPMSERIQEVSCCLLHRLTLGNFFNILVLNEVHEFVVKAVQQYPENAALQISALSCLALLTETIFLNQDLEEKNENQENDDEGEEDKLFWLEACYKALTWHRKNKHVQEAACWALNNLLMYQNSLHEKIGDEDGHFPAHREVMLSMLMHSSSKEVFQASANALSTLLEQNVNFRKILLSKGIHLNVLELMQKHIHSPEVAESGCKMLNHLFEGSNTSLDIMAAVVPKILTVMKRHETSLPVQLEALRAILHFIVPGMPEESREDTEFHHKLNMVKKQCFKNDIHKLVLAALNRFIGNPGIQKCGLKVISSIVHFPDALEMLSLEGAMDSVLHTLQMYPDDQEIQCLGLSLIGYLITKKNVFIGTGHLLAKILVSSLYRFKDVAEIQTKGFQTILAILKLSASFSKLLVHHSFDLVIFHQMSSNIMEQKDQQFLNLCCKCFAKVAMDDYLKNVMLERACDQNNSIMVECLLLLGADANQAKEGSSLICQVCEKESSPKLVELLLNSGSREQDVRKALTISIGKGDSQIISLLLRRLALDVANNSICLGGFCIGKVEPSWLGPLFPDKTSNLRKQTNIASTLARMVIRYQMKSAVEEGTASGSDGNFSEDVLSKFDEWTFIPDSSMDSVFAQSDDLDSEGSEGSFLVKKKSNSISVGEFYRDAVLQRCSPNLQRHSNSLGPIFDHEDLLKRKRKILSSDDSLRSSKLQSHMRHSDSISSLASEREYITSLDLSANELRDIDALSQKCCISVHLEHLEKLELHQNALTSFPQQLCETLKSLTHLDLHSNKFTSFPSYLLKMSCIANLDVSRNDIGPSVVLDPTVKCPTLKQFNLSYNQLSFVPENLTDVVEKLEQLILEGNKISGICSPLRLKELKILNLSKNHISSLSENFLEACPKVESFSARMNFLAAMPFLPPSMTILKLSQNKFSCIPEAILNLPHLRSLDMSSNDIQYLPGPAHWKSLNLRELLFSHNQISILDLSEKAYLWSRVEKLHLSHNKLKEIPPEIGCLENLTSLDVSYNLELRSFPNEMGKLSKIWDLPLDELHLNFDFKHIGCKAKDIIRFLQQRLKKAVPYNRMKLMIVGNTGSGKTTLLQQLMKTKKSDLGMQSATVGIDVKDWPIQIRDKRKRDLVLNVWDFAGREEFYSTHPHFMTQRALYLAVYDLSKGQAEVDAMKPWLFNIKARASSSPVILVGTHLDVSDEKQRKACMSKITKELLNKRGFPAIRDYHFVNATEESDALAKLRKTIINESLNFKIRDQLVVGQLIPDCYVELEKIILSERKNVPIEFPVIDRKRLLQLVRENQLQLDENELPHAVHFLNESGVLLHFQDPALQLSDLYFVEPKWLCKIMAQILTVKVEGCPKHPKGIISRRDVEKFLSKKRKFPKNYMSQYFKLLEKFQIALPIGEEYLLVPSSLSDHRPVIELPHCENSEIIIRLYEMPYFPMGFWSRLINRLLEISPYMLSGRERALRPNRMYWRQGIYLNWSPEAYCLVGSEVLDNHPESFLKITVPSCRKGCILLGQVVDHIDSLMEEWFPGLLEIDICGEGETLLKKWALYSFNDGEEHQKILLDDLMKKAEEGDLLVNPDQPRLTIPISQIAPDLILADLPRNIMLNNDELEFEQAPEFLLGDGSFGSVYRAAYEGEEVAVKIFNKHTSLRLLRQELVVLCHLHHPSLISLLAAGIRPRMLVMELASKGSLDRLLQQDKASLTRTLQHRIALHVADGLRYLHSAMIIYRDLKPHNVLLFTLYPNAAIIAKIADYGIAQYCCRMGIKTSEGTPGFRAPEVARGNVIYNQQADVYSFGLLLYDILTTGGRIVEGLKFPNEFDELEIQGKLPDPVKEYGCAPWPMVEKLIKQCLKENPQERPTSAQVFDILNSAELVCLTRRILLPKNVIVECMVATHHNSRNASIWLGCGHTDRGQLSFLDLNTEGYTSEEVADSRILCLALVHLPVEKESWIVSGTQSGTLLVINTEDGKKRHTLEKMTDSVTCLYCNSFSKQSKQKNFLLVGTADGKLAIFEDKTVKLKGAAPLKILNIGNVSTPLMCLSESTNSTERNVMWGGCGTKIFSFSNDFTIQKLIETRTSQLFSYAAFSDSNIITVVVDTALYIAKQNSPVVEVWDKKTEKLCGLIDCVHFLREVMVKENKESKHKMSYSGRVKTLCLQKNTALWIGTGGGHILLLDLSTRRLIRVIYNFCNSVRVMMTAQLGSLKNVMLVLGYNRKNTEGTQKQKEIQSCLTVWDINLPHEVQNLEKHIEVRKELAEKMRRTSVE

For `C#Cc1cc2cc(c1)-c1n[nH]c3ccc(cc13)OCCCNC(=O)OC2` [Example 80, 4-ethynyl-8,14-dioxa-10,19,20-triazatetracyclo[13.5.2.1^2,6.0^18,21]tricosa-1(20),2(23),3,5,15(22),16,18(21)-heptaen-9-one], the IC50 is < 10 nM.

As for `C[C@@H]1CCNC(=O)OCc2cccc(n2)-c2n[nH]c3cc(F)c(cc23)O1` [Example 146, (13R)-16-fluoro-13-methyl-8,14-dioxa-10,19,20,23-tetraazatetracyclo[13.5.2.1^2,6.0^18,21]tricosa-1(20),2,4,6(23),15,17,21-heptaen-9-one], the IC50 was < 10 nM.

Take `CN1CCN(Cc2cc3cc(c2)-c2n[nH]c4ccc(cc24)OCCCNC(=O)OC3)CC1` [Example 44, 4-[(4-methylpiperazin-1-yl)methyl]-8,14-dioxa-10,19,20-triazatetracyclo[13.5.2.1^2,6.0^18,21]tricosa-1(20),2,4,6(23),15,17,21-heptaen-9-one]: the half-maximal inhibitory concentration (IC50) was < 10 nM.

On to `O=C1NCCCOc2ccc3[nH]nc(c3c2)-c2cc(no2)CCCO1` [Example 123, 3,9,15-trioxa-4,11,20,21-tetraazatetracyclo[14.5.2.1^2,5.0^19,22]tetracosa-1(21),2(24),4,16,18,22-hexaen-10-one], for which the IC50 was < 10 nM.

As for `C[C@@H]1CCNC(=O)OCc2nc(cc(N3CCCC3)n2)-c2n[nH]c3ccc(cc23)O1` [Example 129, (13R)-13-methyl-4-(pyrrolidin-1-yl)-8,14-dioxa-5,10,19,20,23-pentaaza tetracyclo[13.5.2.1^2,6.0^18,21]tricosa-1(20),2,4,6(23),15,17,21-heptaen-9-one], the concentration for half-maximal inhibition (IC50) is < 10 nM.

Turning to `C[C@@H]1CN(c2cc3cc(c2)-c2n[nH]c4ccc(cc24)OCCCNC(=O)OC3)C[C@H](C)O1` [Example 17, 4-[(2R,6S)-2,6-dimethylmorpholin-4-yl]-8,14-dioxa-10,19,20-triazatetra cyclo[13.5.2.1^2,6.0^18,21]tricosa-1(20),2,4,6(23),15,17,21-heptaen-9-one], the IC50 is < 10 nM.

Turning to `CN1CCN(c2cc3cc(c2)-c2n[nH]c4ccc(cc24)OCCCNC(=O)OC3)CC1` [Example 31, 4-(4-methylpiperazin-1-yl)-8,14-dioxa-10,19,20-triazatetracyclo[13.5.2.1^2,6.0^18,21]tricosa-1(20),2,4,6(23),15,17,21-heptaen-9-one], the concentration for half-maximal inhibition (IC50) was < 10 nM.

Turning to `O=C1NCCCOc2ccc3[nH]nc(c3c2)-c2cc(cc(N3CCC(N4CCCC4)CC3)c2)CO1` [Example 34, 4-[4-(pyrrolidin-1-yl)piperidin-1-yl]-8,14-dioxa-10,19,20-triazatetracyclo[13.5.2.1^2,6.0^18,21]tricosa-1(20),2,4,6(23),15,17,21-heptaen-9-one], the IC50 was < 10 nM.

Turning to `O=C1NCCOc2ccc3[nH]nc(c3c2)-c2cnn(c2)CCCO1` [Example 121, 9,14-dioxa-4,5,11,19,20-pentaazatetracyclo[13.5.2.1^2,5.0^18,21]tricosa-1(20),2(23),3,15,17,21-hexaen-10-one], the IC50 fell in the range of 100 to 1000 nM.

On to `COc1cc2cc(c1F)C(C)OC(=O)NCCCOc1ccc3[nH]nc-2c3c1` (stereo not drawn) [Example 95, 5-fluoro-4-methoxy-7-methyl-8,14-dioxa-10,19,20-triazatetracyclo[13.5.2.1^2,6.0^18,21]tricosa-1(20),2(23),3,5,15(22),16,18(21)-heptaen-9-one], for which the concentration for half-maximal inhibition (IC50) is < 10 nM.

Turning to `CC1CCNC(=O)OCc2cccc(c2)-c2n[nH]c3ccc(cc23)O1` (stereo not drawn) [Example 50, 13-methyl-8,14-dioxa-10,19,20-triazatetracyclo[13.5.2.1^2,6.0^18,21]tricosa-1(20),2,4,6(23),15,17,21-heptaen-9-one], the half-inhibitory concentration (IC50) is < 10 nM.

For the compound `O=C1NCCCOc2ccc3[nH]nc(c3c2)-c2cc(F)c(F)c(c2)CO1` [Example 29, 4,5-difluoro-8,14-dioxa-10,19,20-triazatetracyclo[13.5.2.1^2,6.0^18,21]tricosa-1(20),2,4,6(23),15,17,21-heptaen-9-one], the half-maximal inhibitory concentration (IC50) is < 10 nM.

In the case of `O=C1NCCCOc2ccc3[nH]nc(c3c2)-c2csc(n2)CCO1` [Example 134, 8,14-dioxa-4-thia-10,19,20,23-tetraazatetracyclo[13.5.2.1^2,5.0^18,21]tricosa-1(20),2,5(23),15,17,21-hexaen-9-one], the 50% inhibitory concentration (IC50) is < 10 nM.

Regarding `O=C1NCCCCc2ccc3[nH]nc(c3c2)-c2cccc(c2)CO1` [Example 142, 8-oxa-10,19,20-triazatetracyclo[13.5.2.1^2,6.0^18,21]tricosa-1(20),2(23),3,5, 15(22),16,18(21)-heptaen-9-one], the IC50 was < 10 nM.

With `CC(C)N1CCCOc2ccc3[nH]nc(c3c2)-c2cncc(c2)COC1=O` [Example 6, 10-(propan-2-yl)-8,14-dioxa-4,10,19,20-tetraazatetracyclo[13.5.2.1^2,6.0^18,21]tricosa-1(20),2,4,6(23),15,17,21-heptaen-9-one], the 50% inhibitory concentration (IC50) fell in the range of 10 to 100 nM.

With `C[C@@H]1CCNC(=O)O[C@H](C)c2cccc(n2)-c2n[nH]c3ccc(cc23)O1` [Example 136, (7R,13R)-7,13-dimethyl-8,14-dioxa-10,19,20,23-tetraazatetracyclo[13.5.2.1^2,6.0^18,21]tricosa-1(20),2,4,6(23),15,17,21-heptaen-9-one], the IC50 was < 10 nM.

On to `C[C@H]1OC(=O)NCCCOc2ccc3[nH]nc(c3c2)-c2cc(F)cc1c2` (single isomer, unassigned) [Example 108, (7R)- or (7S)-4-fluoro-7-methyl-8,14-dioxa-10,19,20-triazatetracyclo[13.5.2.1^2,6.0^18,21]tricosa-1(20),2,4,6(23),15,17,21-heptaen-9-one], for which the concentration for half-maximal inhibition (IC50) was 10 to 100 nM.

For the compound `O=C1NC[C@@H](F)COc2ccc3[nH]nc(c3c2)-c2cccc(c2)CO1` [Example 168, (12R)-12-fluoro-8,14-dioxa-10,19,20-triazatetracyclo[13.5.2.1^2,6.0^8211]tricosa-1(20),2(23),3,5,15(22),16,18(21)-heptaen-9-one], the concentration for half-maximal inhibition (IC50) is < 10 nM.

With `CN1CCCNC(=O)OCc2cccc(c2)-c2n[nH]c3ccc1cc23` [Example 163, 14-methyl-8-oxa-10,14,19,20-tetraazatetracyclo[13.5.2.1^2,6.0^18,21]tricosa-1(20),2(23),3,5,15,17,21-heptaen-9-one], the IC50 was < 10 nM.

Take `O=C1NCCCOc2ccc3[nH]nc(c3c2)C2=CN=C(CCO1)S2` [Example 149, 8,14-dioxa-23-thia-4,10,19,20-tetraazatetracyclo[13.5.2.1^2,5.0^18,21]tricosa-1(20),2,4,15(22),16,18(21)-hexaen-9-one]: the IC50 is < 10 nM.

For `COc1c(F)cc2cc1C(C)OC(=O)NCCCOc1ccc3[nH]nc-2c3c1` (stereo not drawn) [Example 89, 4-fluoro-5-methoxy-7-methyl-8,14-dioxa-10,19,20-triazatetracyclo[13.5.2.1^2,6.0^18,21]tricosa-1(20),2(23),3,5,15(22),16,18(21)-heptaen-9-one], the IC50 is 100 to 1000 nM.

With `O=C1NCCCOc2ccc3[nH]nc(c3c2)-c2ccc(F)c(c2)CO1` [Example 10, 5-fluoro-8,14-dioxa-10,19,20-triazatetracyclo[13.5.2.1^2,6.0^18,21]tricosa-1(20), 2,4,6(23),15,17,21-heptaen-9-one], the IC50 is < 10 nM.

On to `CC1CNC(=O)OCc2cccc(c2)-c2n[nH]c3ccc(cc23)OC1` (stereo not drawn) [Example 86, 12-methyl-8,14-dioxa-10,19,20-triazatetracyclo[13.5.2.1^2,6.0^18,21]tricosa-1(20),2(23),3,5,15(22),16,18(21)-heptaen-9-one], for which the half-inhibitory concentration (IC50) was < 10 nM.

For `Cc1c(F)cc2cc1C(C)OC(=O)NCCCOc1ccc3[nH]nc-2c3c1` (stereo not drawn) [Example 88, 4-fluoro-5,7-dimethyl-8,14-dioxa-10,19,20-triazatetracyclo[13.5.2.1^2,6.0^18,21]tricosa-1(20),2(23),3,5,15(22),16,18(21)-heptaen-9-one], the IC50 is 10 to 100 nM.

For the compound `C[C@@H]1CCNC(=O)O[C@@H](C)c2cccc(n2)-c2n[nH]c3ccc(cc23)O1` [Example 150, (7S,13R)-7,13-dimethyl-8,14-dioxa-10,19,20,23-tetraazatetracyclo[13.5.2. 1^2,6.0^18,21]tricosa-1(20),2(23),3,5,15(22),16,18(21)-heptaen-9-one], the IC50 fell in the range of 10 to 100 nM.

Turning to `O=C1NCCCNc2ccc3[nH]nc(c3c2)-c2cccc(c2)CO1` [Example 141, 8-oxa-10,14,19,20-tetraazatetracyclo[13.5.2.1^2,6.0^18,21]tricosa-1(20),2(23), 3,5,15(22),16,18(21)-heptaen-9-one], the IC50 fell in the range of 100 to 1000 nM.

`C[C@@H]1CCNC(=O)O[C@@H](C)c2cncc(n2)-c2n[nH]c3ccc(cc23)O1` [Example 154, (7S,13R)-7,13-dimethyl-8,14-dioxa-4,10,19,20,23-pentaazatetracyclo[13.5.2.1^2,6.0^18,21]tricosa-1(20),2(23),3,5,15(22),16,18(21)-heptaen-9-one]: the concentration for half-maximal inhibition (IC50) is 10 to 100 nM.

Consider `COCCOc1cc2cc(c1)-c1n[nH]c3ccc(cc13)OCCCNC(=O)OC2` [Example 70, 4-(2-methoxyethoxy)-8,14-dioxa-10,19,20-triazatetracyclo[13.5.2.1^2,6.0^18,21]tricosa-1(20),2,4,6(23),15,17,21-heptaen-9-one], for which the 50% inhibitory concentration (IC50) is < 10 nM.

Regarding `O=C1NCCCOc2ccc3[nH]nc(c3c2)-c2cc(F)cc(c2)CO1` [Example 3, 4-fluoro-8,14-dioxa-10,19,20-triazatetracyclo[13.5.2.1^2,6.0^18,21]tricosa-1(20), 2,4,6(23),15,17,21-heptaen-9-one], the half-maximal inhibitory concentration (IC50) is < 10 nM.

As to `O=C1NC[C@@H](F)COc2ccc3[nH]nc(c3c2)-c2cnn(n2)CCO1` [Example 174, (12R)-12-fluoro-8,14-dioxa-4,5,10,19,20,23-hexaazatetracyclo[13.5.2.1^2,5.0^18,21]tricosa-1(20),2(23),3,15,17,21-hexaen-9-one], the half-maximal inhibitory concentration (IC50) was < 10 nM.

Usually IC50 stands for the concentration needed to halve the response being measured.
